These results are taken from patent publication US20070066590A1, “Phenyl-and pyridylpiperidine-derivatives as modulators of glucose metabolism” (priority 2003, published 2007).

One assay has as its target T1, RUP3 (Homo sapiens, UniProt Q8TDV5).
T1 construct: expressed in transfected cells
T1 sequence (Q8TDV5 with tags, fused parts or gaps): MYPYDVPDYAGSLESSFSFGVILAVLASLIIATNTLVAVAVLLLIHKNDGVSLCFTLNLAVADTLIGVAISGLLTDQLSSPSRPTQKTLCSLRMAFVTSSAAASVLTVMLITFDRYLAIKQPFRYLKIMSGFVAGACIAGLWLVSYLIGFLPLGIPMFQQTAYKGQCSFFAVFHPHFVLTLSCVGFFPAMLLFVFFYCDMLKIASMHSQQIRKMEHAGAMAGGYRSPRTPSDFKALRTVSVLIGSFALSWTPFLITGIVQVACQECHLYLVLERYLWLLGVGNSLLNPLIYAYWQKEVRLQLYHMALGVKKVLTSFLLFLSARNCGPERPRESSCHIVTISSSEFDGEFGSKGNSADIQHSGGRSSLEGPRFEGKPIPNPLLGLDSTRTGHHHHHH
The experiment in a line: 96-Well Cyclic AMP Membrane Assay for RUP3 (Membrane Cyclase Assay). In kind it is biochemical. The note with it: RUP3 membranes, cAMP Flashplate. The method, then: 96-Well Cyclic AMP Membrane Assay for RUP3
• 1) Adenlyl cyclase Activation Flashplate Assay kit from Perkin Elmer—96 wells (SMP004B) and ^125I tracer (NEX130) which comes with the kit. […] All buffers and membranes should be kept cold (in ice bucket) while performing assay. 20 mM Hepes, pH7.4 1 mM MgCl2 100 mM NaCl 2× Regeneration Buffer (make in binding buffer): 20 mM Phosphocreatine (1.02 gm/200 ml binding buffer) 20 units Creatine phosphokinase (4 mg/200 ml) 20 uM GTP (make up 10.46 mg/ml in binding buffer and add 200 ul/200 ml) 0.2 mM ATP (22.04 mg/200 ml) […] (44.4 mg IBMX dissolved in 1 ml 100% DMSO first and then add the entire amount to 200 ml of buffer). Regeneration buffer can be aliquotted into 40-45 ml portions (in 50 ml sterile tubes) and kept frozen for up to 2 months. Simply put the tube in a beaker with room temperature water to thaw out the regeneration buffer on the day of the assay. […] (Prior to the start of the assay, the frozen membrane pellets for both RUP3 and CMV (cells transfected with an expression plasmid containing no RUP3 sequences), are suspended in binding buffer, usually 1 ml binding buffer for 1 plate of membranes. The membranes are kept in ice all the time, and a polytron (Brinkmann polytron, model # PT-3100) is used (setting 6-7, for 15-20 seconds) to obtain a homogeneous membrane suspension.) Protein concentration is determined by Bradford protein assay kit using instructions given in the kit, using the standard supplied with the kit as a reference. […]

For a further assay, the system named is isolated rat islets. The experiment in a line: Stimulation of insulin secretion in isolated rat islets. In kind it is cell-based. The settings on record: 10 μM compound; increased glucose (e.g. 300 mg/dl). The method, then: E. Stimulation of Insulin Secretion in Isolated Rat Islets
As with HIT-T15 cells, it is known that stimulation of cAMP in isolated rat islets causes an increase in insulin secretion when the glucose concentration in the culture media is changed from 60 mg/dl to 300 mg/dl. RUP3 is an endogenously expressed GPCR in the insulin-producing cells of rat islets. Thus, RUP3 ligands can also be tested for their ability to stimulate GSIS in rat islet cultures. This assay is performed as follows: • A. Select 75-150 islet equivalents (IEQ) for each assay condition using a dissecting microscope. Incubate overnight in low-glucose culture medium (Optional.) • B. Divide the islets evenly into triplicate samples of 25-40 islet equivalents per sample. Transfer to 40 μm mesh sterile cell strainers in wells of a 6-well plate with 5 ml of low (60 mg/dl) glucose Krebs-Ringers Buffer (KRB) assay medium. • C. Incubate 30 minutes (1 hour if overnight step skipped) at 37° C. and 5% CO2. Save the supernatants if a positive control for the RIA is desired. • D. Move strainers with islets to new wells with 5 ml/well low glucose KRB. […] Freeze and store at <−20° C. until insulin concentrations can be determined. • I. Insulin determinations are done as above, or by Linco Labs as a custom service, using their rat insulin RIA (Cat # RI-13K). […]

Assay [1] relates to HIT-T15 cells. Kind of assay: Stimulation of insulin secretion in HIT-T15 cells (GSIS). The assay is classed as cell-based, hamster. The note with it: 15 mM glucose; level comparable to forskolin. The method, then:
D. Stimulation of Insulin Secretion in HIT-T15 Cells
It is known that stimulation of cAMP in HIT-T15 cells causes an increase in insulin secretion when the glucose concentration in the culture media is changed from 3 mM to 15 mM. Thus, RUP3 ligands can also be tested for their ability to stimulate glucose-dependent insulin secretion (GSIS) in HIT-T15 cells. In this assay, 30,000 cells/well in a 12-well plate are incubated in culture media containing 3 mM glucose and no serum for 2 hours. The media is then changed; wells receive media containing either 3 mM or 15 mM glucose, and in both cases the media contains either vehicle (DMSO) or RUP3 ligand at a concentration of interest Some wells receive media containing 1 uM forskolin as a positive control. All conditions are tested in triplicate. Cells are incubated for 30 minutes, and the amount of insulin secreted into the media is determined by ELISA, using a kit from either Peninsula Laboratories (Cat # ELIS-7536) or Crystal Chem Inc. (Cat # 90060).
(§1) In the first of these, RUP3 agonists are used to stimulate HIT-T15 cells, which express RUP3 at significant levels, as indicated in the Northern blot shown in FIG. 4. […] In this example a RUP3 agonist can be evaluated for its ability to stimulate cAMP production in HIT cells in comparison to the level seen with the adenyl cyclase activator forskolin.

Assay [2] concerns HIT-T15 cells. Kind of assay: Stimulation of cAMP in HIT-T15 cells. In kind it is cell-based, hamster. The settings on record: compared with adenyl cyclase activator forskolin. The method, then: C. Stimulation of cAMP in HIT-T15 Cells
HIT-T15 (ATCC CRL#1777) is an immortalized hamster insulin-producing cell line. These cells express RUP3 and therefore can be used to assess the ability of RUP3 ligands to stimulate or inhibit cAMP accumulation via its endogenously expressed receptor. In this assay, cells are grown to 80% confluence and then distributed into a 96-well Flashplate (50,000 cells/well) for detection of cAMP via a “cAMP Flashplate Assay” (NEN, Cat # SMP004). Briefly, cells are placed into anti-cAMP antibody-coated wells that contain either vehicle, the test ligand(s) at a concentration of interest, or 1 uM forskolin. The latter is a direct activator of adenylyl cyclase and serves as a positive control for stimulation of cAMP in HIT-T15 cells. All conditions are tested in triplicate. […] Bound ^125I-cAMP is detected using a Wallac Microbeta Counter. The amount of cAMP in each sample is determined by comparison to a standard curve, obtained by placing known concentrations of cAMP in some wells on the plate.
as §1

Broadly, the IC50 is the concentration at which inhibition is half-maximal. Read a high IC50 as weaker potency in that assay. With `CC(=O)CCc1ccc(Oc2ccc([N+](=O)[O-])c(N3CCC(Sc4ccccn4)CC3)c2)cc1` [Compound A51, 4-(4-{4-Nitro-3-[4-(pyridin-2-ylsulfanyl)-piperidin-1-yl]-phenoxy}-phenyl)-butan-2-one], on RUP3, 0.346 µM corresponded to half-maximal inhibition (IC50).

`CCCC1CCN(c2cc(Oc3ccc(C(=O)CC(=O)OC)cc3)ccc2[N+](=O)[O-])CC1` [Compound A30, 3-{4-[4-Nitro-3-(4-propyl-piperidin-1-yl)-phenoxy]-phenyl}-3-oxo-propionic acid methyl ester]: the “glucose-dependent insulin release in isolated rat islets” value with isolated rat islets is “enhance glucose-dependent insulin release”. Moreover, the “insulin secretion in HIT cells” value in the assay on HIT-T15 cells [1] is “stimulate insulin secretion”. For the same molecule, inhibition against RUP3 was half-maximal at 0.185 µM (IC50). Also, in the assay with HIT-T15 cells [2], the “stimulation of cAMP in HIT-T15 cells” value is reported as “robust stimulator of cAMP”.

As to `O=[N+]([O-])c1ccc(Oc2ccc(-n3cncn3)cc2)cc1N1CCC(Sc2ccccn2)CC1` [Compound A52, 2-{1-[2-Nitro-5-(4-[1,2,4]triazol-1-yl-phenoxy)-phenyl]-piperidin-4-ylsulfanyl}-pyridine], on RUP3, the IC50 is 0.23 µM.
